This is an account of results in ChEMBL document CHEMBL1201862, “PubChem BioAssay data set” (2004).

Test systems include UACC-62; SF-268; HCT-116; RXF 393; HT-29; OVCAR-5; HOP-62; HCC 2998; A498; SNB-75; HOP-92; MOLT-4; NCI-H522; SF-295; TK-10; COLO 205; NCI-H460; OVCAR-3; MCF7; ACHN.
What all share (test): growth of human tumour cells (NCI), 48 h

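Where inhibition never reached the appropriate level, the endpoint shown equals the highest concentration tested. Otherwise, values were interpolated linearly from a five-concentration, 48-hour dose response in 96-well plates. GI50: concentration for 50% inhibition of growth.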 Calls of active or inactive are those of the source. Rule as the data show it: active = GI50 up to about 1.1 µM and inactive = higher.

For `Brc1ccc2c([C@H]3CN[C@@H](c4c[nH]c5cc(Br)ccc45)CN3)c[nH]c2c1`, the GI50 is 9.82 µM (inactive) in the experiment on UACC-62; 6.79 µM (inactive) with SF-268; 1.66 µM (inactive) in the experiment on HCT-116; 2.4 µM (inactive) in the experiment with RXF 393; 1.92 µM (inactive) in the experiment with HT-29; 4.95 µM (inactive) in the experiment on OVCAR-5. The GI50 was 11.6 µM (inactive) in the experiment with HOP-62; 1.62 µM (inactive) in the experiment with HCC 2998; 1.87 µM (inactive) in the experiment on A498; 5.27 µM (inactive) with SNB-75; 3.24 µM (inactive) in the experiment on HOP-92; 2.29 µM (inactive) in the experiment with MOLT-4. Moreover, the GI50 was 1.57 µM (inactive) with NCI-H522; 7.1 µM (inactive) with SF-295; 7.33 µM (inactive) in the experiment on TK-10; 1.57 µM (inactive) with COLO 205; 1.9 µM (inactive) in the experiment on NCI-H460; 1.94 µM (inactive) with OVCAR-3. For the same compound, the GI50 was 1.9 µM (inactive) in the experiment on MCF7 and 2.94 µM (inactive) with ACHN.
In the case of `CN(C)c1ccc(C=c2c3ccccc3n3c2c2ccccc2[n+]3C)cc1`, the GI50 is 0.305 µM (active) with UACC-62; 0.425 µM (active) with SF-268; 0.354 µM (active) in the experiment with HCT-116; 1.52 µM (inactive) in the experiment on RXF 393; 0.689 µM (active) in the experiment with HT-29; 3.02 µM (inactive) in the experiment with OVCAR-5. The GI50 in the experiment with HOP-62 is 0.942 µM (active); with HCC 2998, 0.671 µM (active); in the experiment on A498, 1.69 µM (inactive); in the experiment on SNB-75 it was 2.17 µM (inactive); with HOP-92, 0.421 µM (active); with MOLT-4, 0.493 µM (active). Also, the GI50 in the experiment on NCI-H522 was 0.174 µM (active); with SF-295 it was 1.52 µM (inactive); with TK-10, 1.2 µM (inactive); with COLO 205, 0.0682 µM (active); with NCI-H460, 2.84 µM (inactive); in the experiment on OVCAR-3, 0.239 µM (active). In addition, the GI50 is 0.822 µM (active) in the experiment on MCF7 and 0.867 µM (active) with ACHN.
On to `COc1ccccc1CNCc1nc2ccccc2[nH]1`, for which the GI50 in the experiment on UACC-62 is > 100 µM (inactive); in the experiment on SF-268 it was > 100 µM (inactive); in the experiment on HCT-116 it was > 100 µM (inactive); with RXF 393 it was > 100 µM (inactive); with HT-29, 78.7 µM (inactive); in the experiment on OVCAR-5, > 100 µM (inactive). Moreover, the GI50 in the experiment with HOP-62, in the experiment with HCC 2998, in the experiment with A498, in the experiment with SNB-75, in the experiment with HOP-92 and with MOLT-4 was > 100 µM (inactive) in each case. The GI50 in the experiment on NCI-H522, in the experiment with SF-295, in the experiment on TK-10, in the experiment on COLO 205, with NCI-H460 and with OVCAR-3 was > 100 µM (inactive) in each case. Moreover, the GI50 with MCF7 and in the experiment with ACHN was > 100 µM (inactive) each time.
For the compound `CCOCC(=O)N[C@H]1CCc2cc(OC(=O)COCC)c(OC)c(OC)c2-c2ccc(SC)c(=O)cc21`, the GI50 with UACC-62 was 0.0102 µM (active); with SF-268, 0.0384 µM (active); in the experiment with HCT-116, 0.0175 µM (active); in the experiment with RXF 393, 0.021 µM (active); in the experiment with HT-29, 0.0177 µM (active); in the experiment with OVCAR-5, 0.604 µM (active). For the same compound, the GI50 was 0.0533 µM (active) in the experiment on HOP-62; 0.0264 µM (active) with HCC 2998; 0.0472 µM (active) with A498; 0.0461 µM (active) in the experiment on SNB-75; 0.0248 µM (active) in the experiment on HOP-92; 0.0269 µM (active) in the experiment on MOLT-4. The GI50 with NCI-H522 is 0.0151 µM (active); with SF-295, 0.0157 µM (active); with TK-10, 0.459 µM (active); with COLO 205, 0.0219 µM (active); in the experiment on NCI-H460 it was 0.0327 µM (active); in the experiment on OVCAR-3, 0.01 µM (active). The figures for the GI50 in the experiment on MCF7 and in the experiment on ACHN were 0.00686 µM (active) and 0.0655 µM (active), respectively.
As to `Cn1c2c3ccc(Cl)cc3nc-2c(Cl)c2ccccc21`, the GI50 in the experiment with UACC-62 is 20.4 µM (inactive); in the experiment with SF-268, 14.2 µM (inactive); in the experiment with HCT-116, 1.71 µM (inactive); in the experiment with RXF 393 it was 16.6 µM (inactive); in the experiment with HT-29, 15.3 µM (inactive); in the experiment on OVCAR-5, 17.3 µM (inactive). Moreover, the GI50 is 16.4 µM (inactive) in the experiment on HOP-62; 5.38 µM (inactive) in the experiment on HCC 2998; 19.9 µM (inactive) in the experiment on A498; 17.1 µM (inactive) in the experiment with SNB-75; 15.7 µM (inactive) in the experiment with HOP-92; 19 µM (inactive) with MOLT-4. In addition, the GI50 in the experiment on NCI-H522 was 17.9 µM (inactive); in the experiment with SF-295, 15.2 µM (inactive); with TK-10, 16.6 µM (inactive); in the experiment on COLO 205, 12.2 µM (inactive); in the experiment on NCI-H460 it was 12.7 µM (inactive); with OVCAR-3, 14 µM (inactive). Moreover, the figures for the GI50 with MCF7 and in the experiment on ACHN were 26.2 µM (inactive) and 13.5 µM (inactive), respectively.
Turning to `Cn1c(SCc2c[nH]c3ccccc23)nnc1-c1ccc(Cl)cc1Cl`, the GI50 in the experiment with UACC-62 was 12 µM (inactive); in the experiment with SF-268, 23.9 µM (inactive); in the experiment on HCT-116, 23.4 µM (inactive); with RXF 393, 12.2 µM (inactive); in the experiment with HT-29, 17.3 µM (inactive); in the experiment with OVCAR-5, 22.8 µM (inactive). Besides, the GI50 is 6.1 µM (inactive) in the experiment with HOP-62; 12 µM (inactive) in the experiment on HCC 2998; 16.3 µM (inactive) in the experiment on A498; 1.29 µM (inactive) in the experiment with SNB-75; 12.6 µM (inactive) in the experiment on HOP-92; 7.36 µM (inactive) with MOLT-4. Moreover, the GI50 with NCI-H522 was 12.7 µM (inactive); in the experiment with SF-295, 8.3 µM (inactive); with TK-10 it was 17.1 µM (inactive); in the experiment on COLO 205 it was 14 µM (inactive); in the experiment with NCI-H460, 12.5 µM (inactive); in the experiment with OVCAR-3, 12.1 µM (inactive). In addition, the GI50 with MCF7 is 22.7 µM (inactive); in the experiment with ACHN, 23.9 µM (inactive).
Consider `C[O+]=C1C=CC(=C2SC(c3ccccc3)(c3ccccc3)c3ccccc32)C=C1.[O-][Cl+3]([O-])([O-])[O-]`, for which the GI50 in the experiment on UACC-62 was 18.7 µM (inactive); in the experiment with SF-268 it was 29 µM (inactive); in the experiment on HCT-116, 10.3 µM (inactive); in the experiment with RXF 393, 11.8 µM (inactive); in the experiment with HT-29 it was 15 µM (inactive); in the experiment on OVCAR-5, 19.5 µM (inactive). The GI50 with HOP-62 was 28 µM (inactive); in the experiment on HCC 2998, 26.5 µM (inactive); with A498, 24 µM (inactive); with SNB-75 it was 26.9 µM (inactive); in the experiment on HOP-92 it was 16.6 µM (inactive); in the experiment on MOLT-4, 13.1 µM (inactive). Moreover, the GI50 with NCI-H522 was 20.7 µM (inactive); in the experiment with SF-295 it was 22.1 µM (inactive); in the experiment with TK-10, 23.4 µM (inactive); in the experiment on COLO 205, 17.3 µM (inactive); in the experiment with NCI-H460, 14 µM (inactive); in the experiment on OVCAR-3, 16.1 µM (inactive). The GI50 with MCF7 was 25.4 µM (inactive); in the experiment on ACHN, 24.8 µM (inactive).
With `Cc1cc(O)cc(O)c1/N=N/c1ccc([N+](=O)[O-])cc1`, the GI50 with UACC-62 was 12.9 µM (inactive); in the experiment with SF-268, 9.86 µM (inactive); in the experiment on HCT-116 it was 3.51 µM (inactive); with RXF 393, 10.6 µM (inactive); in the experiment on HT-29, 29.3 µM (inactive); with OVCAR-5, 27.7 µM (inactive). The GI50 is > 100 µM (inactive) in the experiment with HOP-62; 10.4 µM (inactive) in the experiment on HCC 2998; 18.4 µM (inactive) in the experiment on A498; 18.5 µM (inactive) in the experiment with SNB-75; 2.39 µM (inactive) in the experiment on HOP-92; 5.3 µM (inactive) in the experiment with MOLT-4. The GI50 in the experiment on NCI-H522 is 3.48 µM (inactive); in the experiment with SF-295, > 100 µM (inactive); in the experiment on TK-10, 23.9 µM (inactive); in the experiment with COLO 205, 30.5 µM (inactive); in the experiment on NCI-H460 it was 19.4 µM (inactive); in the experiment on OVCAR-3, > 100 µM (inactive). Besides, the values for the GI50 in the experiment on MCF7 and in the experiment on ACHN were 16.5 µM (inactive) and 17.1 µM (inactive), respectively.
For the compound `CN(CCCCCl)P(=O)(OCc1ccc([N+](=O)[O-])o1)OC[C@H]1O[C@@H](n2cc(F)c(=O)[nH]c2=O)C[C@@H]1O` (stereo not given in full), the GI50 in the experiment on UACC-62 was 0.437 µM (active); with SF-268, 0.0284 µM (active); in the experiment on HCT-116, 0.995 µM (active); in the experiment with RXF 393, 0.302 µM (active); with HT-29 it was 0.502 µM (active); in the experiment on OVCAR-5, > 44.5 µM (inactive). Besides, the GI50 was 0.145 µM (active) in the experiment on HOP-62; < 0.01 µM (active) in the experiment on HCC 2998; 0.0236 µM (active) in the experiment on A498; 0.102 µM (active) in the experiment with SNB-75; 0.64 µM (active) in the experiment on HOP-92; 0.583 µM (active) in the experiment with MOLT-4. Moreover, the GI50 in the experiment with NCI-H522 is 3.77 µM (inactive); in the experiment on SF-295, 0.0914 µM (active); in the experiment on TK-10, 1.79 µM (inactive); in the experiment on COLO 205 it was < 0.01 µM (active); with NCI-H460 it was < 0.01 µM (active); in the experiment on OVCAR-3 it was 0.52 µM (active). Also, the GI50 in the experiment on MCF7 was < 0.0227 µM (active); in the experiment with ACHN it was 0.0365 µM (active).
In the case of `Cc1cc(N(CCC#N)CCC#N)ccc1/C=C1\SC(=S)NC1=O`, the GI50 in the experiment with UACC-62 was 48.6 µM (inactive); in the experiment with SF-268, 23.6 µM (inactive); in the experiment with HCT-116 it was 54.2 µM (inactive); in the experiment on RXF 393 it was 19.8 µM (inactive); in the experiment on HT-29, > 100 µM (inactive); in the experiment on OVCAR-5, 34.9 µM (inactive). For the same compound, the GI50 was 22.7 µM (inactive) in the experiment on HOP-62; > 100 µM (inactive) in the experiment on HCC 2998; 49.8 µM (inactive) in the experiment on A498; 11.6 µM (inactive) in the experiment on SNB-75; 36.4 µM (inactive) with HOP-92; 91 µM (inactive) in the experiment with MOLT-4. Further, the GI50 in the experiment with NCI-H522 is 19.4 µM (inactive); with SF-295, 17.5 µM (inactive); with TK-10, > 100 µM (inactive); in the experiment with COLO 205, > 100 µM (inactive); with NCI-H460 it was 30.3 µM (inactive); in the experiment on OVCAR-3, 51.3 µM (inactive). The GI50 was 54.2 µM (inactive) with MCF7 and > 100 µM (inactive) in the experiment with ACHN.
